Reference: patent EP0317873B1, “Radioiodinated benzamides and method of their use as radioimaging agents” (THE VANDERBILT UNIVERSITY, priority 1987, dated 1989)

Columns and labels:
D-2 receptor [1] = target: T1, D-2 receptor (Rattus norvegicus, UniProt P61169); assay: Displacement of [125I](S)-II binding to rat striatal membranes (receptor binding assay); settings: radioligand concentration 0.46 nM, nonspecific binding in the presence of 10 µM of (S)-II, 30 min at 37°C, read-out: [¹²⁵I]-(S) II binding IC₅₀
T1 construct: 90 µL of the striatal membrane preparation; from tissue; host or cells: rat striatum (membrane preparation)
T1 sequence (P61169 whole entry): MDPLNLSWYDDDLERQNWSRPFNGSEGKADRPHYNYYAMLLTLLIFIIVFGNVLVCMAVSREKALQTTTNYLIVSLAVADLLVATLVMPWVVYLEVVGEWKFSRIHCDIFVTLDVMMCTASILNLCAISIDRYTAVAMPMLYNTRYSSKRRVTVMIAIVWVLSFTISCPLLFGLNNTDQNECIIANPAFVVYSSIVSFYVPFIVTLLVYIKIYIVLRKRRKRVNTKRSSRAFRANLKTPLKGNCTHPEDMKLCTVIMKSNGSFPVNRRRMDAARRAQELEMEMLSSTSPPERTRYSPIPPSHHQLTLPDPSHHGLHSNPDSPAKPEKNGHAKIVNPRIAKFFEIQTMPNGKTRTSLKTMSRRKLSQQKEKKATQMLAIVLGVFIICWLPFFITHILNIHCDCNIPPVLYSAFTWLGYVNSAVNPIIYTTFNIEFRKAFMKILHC
Experimental: Lett. 64:163-168 (1986). […] Male Sprague-Dawley rats (150-200 g) were killed by decapitation and their brains quickly removed and dissected on ice. Striata were dissected and homogenized in 40 vol of ice-cold Tris-HCl (50 mM) containing 123 mM NaCl, 5 mM KCl, 2 mM CaCl₂ and 1 mM MgCl₂ (pH 7.4) using a Brinkman Polytron. The suspension was centrifuged at 30,000 x g for 10 min at 4°C, and the pellet was resuspended in 40 vol of fresh buffer with polytron. The suspension was incubated at 37°C for 10 min, centrifuged again at 30,000 x g for 10 min (4°C) and the final pellet was resuspended with the polytron in 200 vol of ice cold buffer. […] Nonspecific binding was determined in the presence of 10 µM[…]. Tubes were incubated for 30 min at 37°C, poured over Whatman GF/B filters under vacuum, and the filters were rinsed three times with 4 mL of ice cold buffer. Radioactivity remaining on the filters was measured by liquid scintillation on a Quantum 9 Multichannel analyzer operating at 35% efficiency.

D-2 receptor [2] = target: T1, D-2 receptor; assay: Displacement of [3H]sulpiride binding to rat striatal membranes (receptor binding assay); settings: read-out: [³H]sulpiride binding IC₅₀, radioligand concentration 2.9 nM, nonspecific binding in the presence of 10 µM sulpiride, 30 min at 37°C
Experimental: Lett. 64:163-168 (1986). […] Male Sprague-Dawley rats (150-200 g) were killed by decapitation and their brains quickly removed and dissected on ice. Striata were dissected and homogenized in 40 vol of ice-cold Tris-HCl (50 mM) containing 123 mM NaCl, 5 mM KCl, 2 mM CaCl₂ and 1 mM MgCl₂ (pH 7.4) using a Brinkman Polytron. The suspension was centrifuged at 30,000 x g for 10 min at 4°C, and the pellet was resuspended in 40 vol of fresh buffer with polytron. The suspension was incubated at 37°C for 10 min, centrifuged again at 30,000 x g for 10 min (4°C) and the final pellet was resuspended with the polytron in 200 vol of ice cold buffer. Assay tubes contained […] or radioligand at 2.9 nM concentration and 90 µL of the striatal membrane preparation. Nonspecific binding was determined in the presence of 10 µM(-)[¹²⁵I](S)-II. Tubes were incubated for 30 min at 37°C, poured over Whatman GF/B filters under vacuum, and the filters were rinsed three times with 4 mL of ice cold buffer. Radioactivity remaining on the filters was measured by liquid scintillation on a Quantum 9 Multichannel analyzer operating at 35% efficiency.

D-2 receptor [3] = target: T1, D-2 receptor; assay: Saturation binding of [125I](S)-II to rat striatal membranes (Scatchard analysis, time course)
Experimental: Male Sprague-Dawley rats (150-200 g) were killed by decapitation and their brains quickly removed and dissected on ice. Striata were dissected and homogenized in 40 vol of ice-cold Tris-HCl (50 mM) containing 123 mM NaCl, 5 mM KCl, 2 mM CaCl₂ and 1 mM MgCl₂ (pH 7.4) using a Brinkman Polytron. The suspension was centrifuged at 30,000 x g for 10 min at 4°C, and the pellet was resuspended in 40 vol of fresh buffer with polytron. The suspension was incubated at 37°C for 10 min, centrifuged again at 30,000 x g for 10 min (4°C) and the final pellet was resuspended with the polytron in 200 vol of ice cold buffer. Assay tubes contained […] or radioligand at 2.9 nM concentration and 90 µL of the striatal membrane preparation. Nonspecific binding was determined in the presence of 10 µM(-)[¹²⁵I](S)-II. Tubes were incubated for 30 min at 37°C, poured over Whatman GF/B filters under vacuum, and the filters were rinsed three times with 4 mL of ice cold buffer. Radioactivity remaining on the filters was measured by liquid scintillation on a Quantum 9 Multichannel analyzer operating at 35% efficiency. […]

[4] = at 37°C, rat striatal membranes

IC50 (D-2 receptor [1]) [nM] | IC50 (D-2 receptor [2]) [nM] | maximal number of binding sites (D-2 receptor [3]; Scatchard analysis of the saturation isotherm, rat striatal membranes) [fmol/mg protein] | Kd (D-2 receptor [3]; Scatchard analysis of the saturation isotherm, single set of binding sites, rat striatal membranes) [nM] | time binding remained stable (D-2 receptor [3]; [4]) | time for binding to reach equilibrium (D-2 receptor [3]; [4]) [min] | character of binding to rat striated membranes (D-2 receptor [3]; conditions of the receptor binding assay) | Compound
169 | 146 |  |  |  |  |  | CCN1CCC[C@@H]1CNC(=O)c1cc(I)ccc1OC [(R)-II]
5 |  |  |  |  |  |  | CCN1CCC[C@H]1CNC(=O)c1cc(I)ccc1OC [(S)-II, (S)-N-[(1-ethyl-2-pyrrolidinyl)methyl]-5-iodo-2-methoxybenzamide]
 |  | 169 | 1 | at least 60 min | ≤ 20 | saturable, reversible and stereospecific | CCN1CCC[C@H]1CNC(=O)c1cc([125I])ccc1OC [Example 1]
